The values below come from patent US4071622A, “Treatment of a mammary or DMBA inducible tumor” (Abbott Laboratories, priority 1976, dated 1978).

Molecules are shown by their SMILES.

The test relates to DMBA-induced tumors. Nature of the test: Regression of DMBA-induced tumors in female rats, 11-day treatment. The class given is in vivo. As to conditions: for total tumor volume of the treated group, day 3 / total tumor volume of the treated group, day 6 / total tumor volume of the treated group, day 10 / total tumor volume of the treated group upon sacrifice, day 11 / tumor volume of one specific animal, day 3 / tumor volume of one specific animal, day 6 / tumor volume of one specific animal, day 10 / tumor volume of one specific animal, day 11: 20 μg/day s.c., b.i.d.; for total tumor volume of the treated group, day 3: day 3 of treatment; for total tumor volume of the treated group, day 6: day 6 of treatment; for total tumor volume of the treated group, day 10: day 10 of treatment; for total tumor volume of the treated group upon sacrifice, day 11 / tumor volume of one specific animal, day 11: day 11, sacrifice; for total tumor volume of the treated group at the beginning of the treatment: day 0, 100 days after 20 mg DMBA intragastric, all tumors of the group summed; for tumor volume of one specific animal at start of treatment / tumor volume of one specific animal, day 3 / tumor volume of one specific animal, day 6 / tumor volume of one specific animal, day 10 / tumor volume of one specific animal, day 11: one animal of the group; for total volume reduction in one specific animal: start to day 11. The method, then: In a group of 3 female, 50-day old rats, tumors were induced by intragastric feeding of 20 mg of 7,12-dimethylbenzanthracene (DMBA) in 2 ml. of sesame oil. The animals developed tumors within 10-12 weeks. All animals were maintained on normal rations for 100 days following the DMBA administration, at which time treatment with the compound identified as Compound A was started, using a b.i.d. regimen for 11 days, 20 μg/day, the compound being administered subcutaneously dissolved in isotonic saline containing 0.1% (wt/vol.) of bovine serum albumin.
The three animals carried a total of 7 tumors at the beginning of the treatment with a total volume of 39.2 cc. After 3 days, the 7 tumors had reduced to a volume of 26.7 cc; on day 6 the volume had reduced to 18.6 cc, on day 10 it was 8.7 cc, which was also the volume upon sacrifice of the animals on day 11.
The animals were prepared and pre-treated in the same fashion as those in Example 2, but Compound B was used for the 11-day treatment. The three rats used started the regimen with a total of 7 tumors of 43.3 cc total volume. Again, the tumor volumes were measured on days 3, 6, 10 and upon sacrifice, showing 37.5, 24.9, 16.3 and 15.0 cc respectively.
Except for the use of Compound C, all steps of the preceding two examples were repeated. The total of 13.4 cc of volume of 3 tumors in two rats was reduced to 10.1, 5.4, 6.4 and 5.5 cc on days 3, 6, 10 and 11. […] However, that tumor was found reduced to 3.0 cc on day 11. A third animal treated in the same fashion started out the regimen with 4 tumors of 28.1 cc which reduced to 15 cc by day 6. The animal died thereafter of causes diagnosed as having no connection with the tumors or the treatment (chronic murine pneumonia).

As to `CCNC(=O)[C@@H]1CCCN1C(=O)[C@H](CCCNC(=N)N)NC(=O)[C@H](CC(C)C)NC(=O)[C@@H](Cc1c[nH]c2ccccc12)NC(=O)[C@H](Cc1ccc(O)cc1)NC(=O)[C@H](CO)NC(=O)[C@H](Cc1c[nH]c2ccccc12)NC(=O)[C@H](Cc1c[nH]cn1)NC(=O)[C@@H]1CCC(=O)N1` [Compound A], the “total tumor volume of the treated group, day 3” value (“total tumor volume … day 3” below) came out at 26.7 cc; the “total tumor volume of the treated group, day 6” value (from here on “total tumor volume … day 6”) is 18.6 cc; the “total tumor volume of the treated group, day 10” value (shortened to “total tumor volume … day 10”) stood at 8.7 cc; the “total tumor volume of the treated group upon sacrifice, day 11” value (“total tumor volume … day 11” for short) is 8.7 cc. The “tumor volume of one specific animal, day 3” value was 7.5 cc; the “tumor volume of one specific animal, day 11” value was 3.76 cc; the “total volume reduction in one specific animal” value was found to be 67.7%. Besides, under “baseline”, the “total tumor volume of the treated group at the beginning of the treatment” value (from here on “total tumor volume … of the treatment”) was 39.2 cc and the “tumor volume of one specific animal at start of treatment” value was determined as 11.65 cc. In addition, the “tumor volume of one specific animal, day 6” value (day 6) was determined as 8.1 cc. Besides, the “tumor volume of one specific animal, day 10” value (day 10) came to 3.8 cc.
Consider `CCNC(=O)[C@@H]1CCCN1C(=O)[C@H](CCCNC(=N)N)NC(=O)[C@H](CC(C)C)NC(=O)[C@@H](Cc1ccccc1)NC(=O)[C@H](Cc1ccc(O)cc1)NC(=O)[C@H](CO)NC(=O)[C@H](Cc1c[nH]c2ccccc12)NC(=O)[C@H](Cc1c[nH]cn1)NC(=O)[C@@H]1CCC(=O)N1` [Compound C], for which the “total tumor volume … day 3” value is on record as 10.1 cc; the “total tumor volume … day 6” value was determined as 5.4 cc; the “total tumor volume … day 10” value is 6.4 cc; the “total tumor volume … day 11” value came out at 5.5 cc. Further, for the setting “baseline”, the “total tumor volume … of the treatment” value is reported as 13.4 cc. For the setting “single tumor that spontaneously increased between days 6 and 10, day 6”, the “volume of one single tumor in one animal, day 6” value worked out at 0.38 cc. Moreover, for the setting “single tumor that spontaneously increased between days 6 and 10, day 10”, the “volume of one single tumor in one animal, day 10” value is recorded as 4.6 cc. Moreover, the “volume of one single tumor in one animal, day 11” value (single tumor that spontaneously increased between days 6 and 10, day 11) is 3.0 cc. Moreover, the “tumor volume of a third animal with 4 tumors at start of regimen” value (third animal, not in the group total, baseline) is on record as 28.1 cc. In addition, the “tumor volume of a third animal with 4 tumors, by day 6” value (third animal, not in the group total, day 6, animal died thereafter of unrelated chronic murine pneumonia) stood at 15 cc.
In the case of `CCNC(=O)[C@@H]1CCCN1C(=O)[C@H](CCCNC(=N)N)NC(=O)[C@H](CC(C)C)NC(=O)[C@@H](Cc1ccc(O)cc1)NC(=O)[C@H](Cc1ccc(O)cc1)NC(=O)[C@H](CO)NC(=O)[C@H](Cc1c[nH]c2ccccc12)NC(=O)[C@H](Cc1c[nH]cn1)NC(=O)[C@@H]1CCC(=O)N1` [Compound B], the “total tumor volume … day 3” value stood at 37.5 cc; the “total tumor volume … day 6” value is 24.9 cc; the “total tumor volume … day 10” value is on record as 16.3 cc; the “total tumor volume … day 11” value came out at 15.0 cc. The “tumor volume of one specific animal, day 3” value came to 2.5 cc; the “tumor volume of one specific animal, day 11” value came to 0.125 cc; the “total volume reduction in one specific animal” value came out at 96.5%. Also, for the setting “baseline”, the “total tumor volume … of the treatment” value was 43.3 cc and the “tumor volume of one specific animal at start of treatment” value stood at 3.6 cc. Besides, the “tumor volume of one specific animal, day 6” value (day 6) is 1.33 cc. For the same compound, the “tumor volume of one specific animal, day 10” value (day 10) is 0.73 cc.
